Counter-ions that a name gives are not always drawn.

As usually defined, the EC50 is the midpoint of the concentration-response curve. Low readings indicate greater potency, high ones weaker potency.

Sequence of Steroidogenic factor 1 (Q13285 whole entry, the tested form may be a part): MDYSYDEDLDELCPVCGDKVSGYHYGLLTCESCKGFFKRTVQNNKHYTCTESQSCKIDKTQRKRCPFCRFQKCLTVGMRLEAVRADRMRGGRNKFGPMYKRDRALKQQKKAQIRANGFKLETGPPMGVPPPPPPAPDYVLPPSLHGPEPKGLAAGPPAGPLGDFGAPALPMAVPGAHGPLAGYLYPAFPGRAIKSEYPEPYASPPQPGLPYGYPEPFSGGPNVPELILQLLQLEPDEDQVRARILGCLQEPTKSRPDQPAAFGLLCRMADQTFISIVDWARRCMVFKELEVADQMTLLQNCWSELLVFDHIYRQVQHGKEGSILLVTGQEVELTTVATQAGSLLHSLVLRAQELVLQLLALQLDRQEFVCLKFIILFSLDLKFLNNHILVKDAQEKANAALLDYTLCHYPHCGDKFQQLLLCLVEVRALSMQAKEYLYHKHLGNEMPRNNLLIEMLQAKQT

One test addresses Steroidogenic factor 1 (Homo sapiens, UniProt Q13285). The test is described as follows: SF-1 activators, concentration-response, dose response, cell-based, CHO-K1, Gal4-SF-1 LBD, luciferase luminescence (AID 692).
Settings: not given
`CC(=O)c1c(C)[nH]c(C(=O)NCCc2cccc(C)c2)c1C` [MLS000045238]: the 50% effective concentration (EC50) was greater than 3670 nM.

`Cc1cc(C(=O)OCC(=O)N2CCc3ccccc32)c(C)o1` [2,5-dimethyl-3-furancarboxylic acid [2-(2,3-dihydroindol-1-yl)-2-oxoethyl] ester] yielded a concentration for a half-maximal effect (EC50) of 1240 nM.

As for `CC(C)(CC(=O)O)Cc1nc(-c2ccc(Cl)cc2)no1` [4-[3-(4-chlorophenyl)-1,2,4-oxadiazol-5-yl]-3,3-dimethyl-butanoic acid], the half-maximal effective concentration (EC50) was greater than 11000 nM.

In turn, `CCOc1ccc(N2C(=O)c3ccccc3C2O)cc1` (stereo unspecified) [2-(4-ethoxyphenyl)-3-hydroxy-3H-isoindol-1-one] came in with an EC50 of 1250 nM.

The molecule `OCCOCCNc1ncnc2c1cnn2-c1ccc(Cl)cc1` [2-[2-[[1-(4-chlorophenyl)-4-pyrazolo[3,4-d]pyrimidinyl]amino]ethoxy]ethanol] registered an EC50 of 434 nM.

`CCc1ccc(C(=O)NCc2cccs2)s1` [5-ethyl-N-(2-thenyl)thiophene-2-carboxamide]: the EC50 was determined as 3230 nM.

`c1ccc2nc3c(nc2c1)c1ccccc1n3CCN1CCOCC1` [4-(2-indolo[3,2-b]quinoxalin-6-ylethyl)morpholine]: the half-maximal effective concentration (EC50) was greater than 11000 nM.

`COCC(C)NC(=O)c1noc2c1CCc1cc(OC)ccc1-2` (stereo unspecified) [7-methoxy-N-(1-methoxypropan-2-yl)-4,5-dihydrobenzo[g][1,2]benzoxazole-3-carboxamide]: the 50% effective concentration (EC50) was greater than 1220 nM.

`Nc1nc2c(s1)CCc1c-2cnn1-c1ccccc1` [MLS000085948] showed a concentration giving a half-maximal response (EC50) of 760 nM.

Molecule `CCCCC1CCC(c2nc(-c3ccccn3)no2)CC1` (stereo unspecified) [SMR000105468] gave a concentration giving a half-maximal response (EC50) of 543 nM.

In turn, `CCc1nc(Nc2ccc3nccnc3c2)c2oc3ccccc3c2n1` [(2-ethylbenzofuro[3,2-d]pyrimidin-4-yl)-quinoxalin-6-yl-amine;hydrochloride] had a concentration giving a half-maximal response (EC50) greater than 99000 nM.

`Cc1nc2sc(-c3ccccc3)cc2c(=O)n1-n1cccc1` [2-methyl-6-phenyl-3-(1-pyrrolyl)-4-thieno[2,3-d]pyrimidinone] gave an EC50 of 477 nM. This counts as sub-micromolar.

Consider `Cn1c(-c2ccc3c(c2)OCO3)cnc1NCc1ccccc1` [(5-Benzo[1,3]dioxol-5-yl-1-methyl-1H-imidazol-2-yl)-benzyl-amine], for which the EC50 is greater than 11000 nM.

As for `Fc1ccc2nc(Nc3nc4c(s3)CCCC4)sc2c1` [(6-fluoro-1,3-benzothiazol-2-yl)-(4,5,6,7-tetrahydro-1,3-benzothiazol-2-yl)amine], the response was half-maximal at 1010 nM (EC50).

The molecule `Cc1cnc(NC(=O)CSc2nnc(-c3ccccc3)o2)s1` [MLS000077990] gave an EC50 of 1920 nM. Against the preceding molecule, the EC50 is about 1.9-fold higher.

Regarding `O=C(CSc1ccccn1)c1ccc2c(c1)OCO2` [1-(1,3-benzodioxol-5-yl)-2-(2-pyridinylthio)ethanone], the half-maximal effective concentration (EC50) amounted to 1160 nM.

`Cc1ccc(-n2c(C)cc(C(=O)COC(=O)c3c(C)noc3C)c2C)cc1` [3,5-dimethyl-4-isoxazolecarboxylic acid [2-[2,5-dimethyl-1-(4-methylphenyl)-3-pyrrolyl]-2-oxoethyl] ester] came in with a half-maximal effective concentration (EC50) of 1800 nM. This EC50 is about 1.6-fold higher than that of the molecule before.

For `CCOC(=O)CSc1nc2ccccc2c(=O)n1NC(=O)c1ccccc1` [2-[(3-benzamido-4-keto-quinazolin-2-yl)thio]acetic acid ethyl ester], a half-maximal response (EC50) required 1360 nM.

The molecule `Cc1ccc(C(=O)Nc2ncc(Cc3ccc(F)cc3)s2)o1` [5-Methyl-furan-2-carboxylic acid [5-(4-fluoro-benzyl)-thiazol-2-yl]-amide] displayed an EC50 of 414 nM.

The molecule `Cc1csc2nc(CSc3nc4ccccc4o3)cn12` [2-[(3-methyl-6-imidazo[2,1-b]thiazolyl)methylthio]-1,3-benzoxazole] displayed an EC50 greater than 3670 nM.

In the case of `COc1ccc(NC(=O)c2ccc3c(c2)OCO3)cc1Cl` [MLS000053302], the half-maximal effective concentration (EC50) came to 589 nM.

In turn, `N#CCc1ccc(NC(=O)Nc2cccc(Cl)c2)cc1` [1-(3-chlorophenyl)-3-[4-(cyanomethyl)phenyl]urea] yielded a concentration for a half-maximal effect (EC50) of 2430 nM.

The molecule `C=CCn1c(C)cc(C(=O)CSc2nc(O)c3ccccc3n2)c1C` [2-[2-(2,5-dimethyl-1-prop-2-enyl-pyrrol-3-yl)-2-oxidanylidene-ethyl]sulfanyl-1H-quinazolin-4-one] displayed an EC50 of 410 nM.

`COc1ccc2nc(Nc3nc(C)c(C(C)=O)s3)sc2c1` [1-[2-[(6-methoxy-1,3-benzothiazol-2-yl)amino]-4-methyl-1,3-thiazol-5-yl]ethanone] came in with an EC50 of 572 nM.

For the molecule `CCOC(=O)CSc1nc(-c2ccc3c(c2)OCO3)ccc1C#N` [2-[[6-(1,3-benzodioxol-5-yl)-3-cyano-2-pyridinyl]thio]acetic acid ethyl ester], the EC50 is greater than 3670 nM.

For the molecule `COc1ccc(-c2cc(C(=O)N3CCCCC3)no2)cc1OC` [1-{[5-(3,4-dimethoxyphenyl)isoxazol-3-yl]carbonyl}piperidine], the response was half-maximal at 3840 nM (EC50).

`CCOC(=O)CSc1nc(-c2ccncc2)ccc1C#N` [2-[(3-cyano-6-pyridin-4-yl-2-pyridinyl)thio]acetic acid ethyl ester] returned a 50% effective concentration (EC50) of 1620 nM.

Molecule `Cc1cccnc1Nc1nc(-c2ccc(O)cc2O)cs1` [4-[2-(3-Methyl-pyridin-2-ylamino)-thiazol-4-yl]-benzene-1,3-diol] showed a concentration giving a half-maximal response (EC50) of 2270 nM. The EC50 values of the last two molecules are within 1.5-fold of each other.

`CC(=Nc1cccc(O)c1)c1sc2ccccc2c1O` [(2Z)-2-[1-(3-hydroxyanilino)ethylidene]-1-benzothiophen-3-one] had an EC50 of 4470 nM.

In turn, `COc1ccc2c(c1OC)C(=O)N1c3ccccc3SC21` (stereo unspecified) [1,2-dimethoxy-4bH-isoindolo[1,2-b][1,3]benzothiazol-11-one] showed a concentration giving a half-maximal response (EC50) of 827 nM. Against the preceding molecule, the EC50 is about 5.4-fold lower.

In the case of `COc1ccccc1Nc1nc2ccccc2[nH]1` [N-(2-methoxyphenyl)-1H-benzimidazol-2-amine], the concentration for a half-maximal effect (EC50) came to 6470 nM.

In turn, `Cc1cc2n(n1)C(c1ccc(N(C)C)cc1)Nc1ccccc1-2` (stereo unspecified) [SMR000015202] yielded a concentration for a half-maximal effect (EC50) greater than 11000 nM.

`c1ccc(-c2cnc(CSc3nnc4ccccn34)o2)cc1` [5-phenyl-2-([1,2,4]triazolo[4,3-a]pyridin-3-ylsulfanylmethyl)-1,3-oxazole] returned a half-maximal effective concentration (EC50) of 957 nM. This lies in the sub-micromolar range.

Molecule `CC(=NC1CCCC1)c1c(C)[nH]n(-c2nc3ccccc3s2)c1=O` [(4Z)-2-(1,3-benzothiazol-2-yl)-4-[1-(cyclopentylamino)ethylidene]-5-methylpyrazol-3-one] displayed a concentration giving a half-maximal response (EC50) of 741 nM.

As to `O=C1CCCC(=O)C1=CNc1ccc(O)cc1` [2-[(4-hydroxyanilino)methylidene]cyclohexane-1,3-dione], the response was half-maximal at 3760 nM (EC50).

Consider `O=C(NCc1ccco1)c1cc2c(s1)CCCCC2` [MLS000065859], for which the concentration giving a half-maximal response (EC50) stood at 3100 nM.

As for `Clc1ccc(-n2ncc3c(NCc4ccccn4)ncnc32)cc1` [1-(4-chlorophenyl)-N-(2-pyridinylmethyl)-4-pyrazolo[3,4-d]pyrimidinamine], the 50% effective concentration (EC50) is 2800 nM.

In the case of `O=C(Nc1nnc(C2CCCCC2)s1)c1ccco1` [MLS000039439], the EC50 is greater than 1220 nM.

The molecule `CCOC(=O)C1CCN(S(=O)(=O)c2ccc(-c3nc4ccccc4s3)s2)CC1` [1-[[5-(1,3-benzothiazol-2-yl)-2-thienyl]sulfonyl]isonipecotic acid ethyl ester] yielded a concentration for a half-maximal effect (EC50) of 2170 nM.

`CC(=O)c1c(C)[nH]c(C(=O)Nc2ccc3c(c2)OCCO3)c1C` returned an EC50 of 466 nM.

Molecule `COC(=O)CSc1nc2cc(C)ccc2cc1C#N` [(3-Cyano-7-methyl-quinolin-2-ylsulfanyl)-acetic acid methyl ester] came in with an EC50 of 746 nM.

Consider `COc1cccc2c(O)c(C(=O)NCc3cccs3)cnc12` [4-Hydroxy-8-methoxy-quinoline-3-carboxylic acid (thiophen-2-ylmethyl)-amide], for which the concentration giving a half-maximal response (EC50) was 6650 nM.

With `Nc1c(C(=O)NCc2ccco2)nnn1-c1ccccc1` [5-amino-N-(2-furanylmethyl)-1-phenyl-4-triazolecarboxamide], the EC50 stood at 2670 nM.

The molecule `COc1ccc(CNC(=O)NC2CCCCC2)cc1` [1-cyclohexyl-3-[(4-methoxyphenyl)methyl]urea] registered an EC50 greater than 11000 nM.

As for `CCc1nnc(NC(=O)CSc2nc(C)c3c(c2C#N)CCCC3)s1` [2-[(4-cyano-1-methyl-5,6,7,8-tetrahydroisoquinolin-3-yl)sulfanyl]-N-(5-ethyl-1,3,4-thiadiazol-2-yl)acetamide], the EC50 was found to be 1690 nM. This counts as single-digit micromolar.

Molecule `COc1ccc2nc3sc(C(=O)NCc4cccs4)c(N)c3cc2c1` [3-Amino-6-methoxy-thieno[2,3-b]quinoline-2-carboxylic acid (thiophen-2-ylmethyl)-amide] showed an EC50 of 403 nM.

`O=C(COc1ncnc2ccccc12)c1ccc2c(c1)OCCO2` [1-(2,3-dihydro-1,4-benzodioxin-6-yl)-2-(4-quinazolinyloxy)ethanone] came in with a 50% effective concentration (EC50) of 396 nM.

In turn, `COc1ccc(C(=O)CC=Nc2cccc(C)n2)cc1OC` had an EC50 of 401 nM.

For the molecule `COCCn1c(C)cc(C(=O)COC(=O)C23CC4CC(CC(O)(C4)C2)C3)c1C` [[2-[1-(2-methoxyethyl)-2,5-dimethylpyrrol-3-yl]-2-oxoethyl] 3-hydroxyadamantane-1-carboxylate], the EC50 came to 813 nM.

`COC(=O)c1ccc(C(=O)C(C#N)c2nc3ccccc3s2)cc1` (stereo unspecified) [4-[(2Z)-2-(3H-1,3-benzothiazol-2-ylidene)-2-cyano-1-oxoethyl]benzoic acid methyl ester] displayed an EC50 of 2710 nM.

Consider `CCOC(=O)c1cnc2c(-c3ccccc3)cnn2c1N` [7-amino-3-phenyl-6-pyrazolo[1,5-a]pyrimidinecarboxylic acid ethyl ester], for which the EC50 was found to be 183 nM.

On to `CCn1c(SCC(=O)c2cccs2)nnc1-c1ccco1` [2-(4-Ethyl-5-furan-2-yl-4H-[1,2,4]triazol-3-ylsulfanyl)-1-thiophen-2-yl-ethanone], for which the EC50 worked out at 9840 nM.

Still in this test, the particulars now being: inactive by the depositor's call.
With `O=C(Cc1ccccc1)n1nc(-c2ccccc2)nc1NCc1ccco1` [1-[5-(2-furanylmethylamino)-3-phenyl-1,2,4-triazol-1-yl]-2-phenylethanone], a half-maximal response (EC50) required 11300 nM. That is a double-digit micromolar value.

The molecule `O=C(Nc1nccs1)c1ccc(COc2ccc(F)cc2)o1` [5-[(4-fluoranylphenoxy)methyl]-N-(1,3-thiazol-2-yl)furan-2-carboxamide] had an EC50 of 11400 nM.

The molecule `Fc1cnc(N2CCOCC2)nc1N1CCc2ccccc21` [1-[5-fluoro-2-(4-morpholinyl)-4-pyrimidinyl]indoline] displayed a concentration giving a half-maximal response (EC50) of 13700 nM.

On to `Cc1cc(C(=O)Nc2sc3c(c2C#N)CCC(C(C)(C)C)C3)no1` (stereo unspecified) [MLS000087312], for which the EC50 stood at 10100 nM.

(Values after BindingDB's records for doi:10.7270/Q23T9FMP (The Scripps Research Institute Molecular Screening Center, 2007).)
